In patent US10106542B2, “Substituted 6,7-dihydropyrazolo[1,5-a]pyrazines as negative allosteric modulators of mGluR2 receptors” (Janssen Pharmaceutica NV, priority 2013, dated 2018):

Molecular target: T1, human mGlu2 receptor (Homo sapiens, UniProt Q14416)
T1 construct: expressed in transfected cells; host or cells: CHO cells (membrane preparation)
Assay: [35S]GTPγS binding assay (mGluR2 negative allosteric modulation)
Format: biochemical
Conditions: for IC50: membranes from CHO cells transfected with human mGlu2 receptor, glutamate 60 μM, pIC50 = −log IC50 (M), read-out: GTPγS - hmGluR2 anGT pIC50 (converted); for Emax / GTPγS - hmGluR2 anGT Emax: relative maximal effect: maximal % inhibition relative to the control glutamate response; for Emax: read-out: GTPγS - hmGluR2 anGT Emax
Procedure: 1) [^35S]GTPγS binding assay
The [^35S]GTPγS binding assay is a functional membrane-based assay used to study G-protein coupled receptor (GPCR) function whereby incorporation of a non-hydrolysable form of GTP, [^35S]GTPγS (guanosine 5′-triphosphate, labelled with […] ^35S), is measured. The G-protein a subunit catalyzes the exchange of guanosine 5′-diphosphate (GDP) by guanosine triphosphate (GTP) and on activation of the GPCR by an agonist, [^35S]GTPγS, becomes incorporated and cannot be cleaved to continue the exchange cycle (Harper (1998) Current Protocols in Pharmacology 2.6.1-10, John Wiley & Sons, Inc.). […] Here we describe the use of the [^35S]GTPγS binding assay using membranes from cells transfected with the human mGlu2 receptor and adapted from Schaffhauser et al. (Molecular Pharmacology, 2003, […]) for the detection of the negative allosteric modulation (NAM) properties of the compounds of this invention.
CHO-cells were cultured to pre-confluence and stimulated with 5 mM butyrate for 24 h. Cells were then collected by scraping in PBS and cell suspension was centrifuged (10 min at 4000 RPM in benchtop centrifuge). Supernatant was discarded and pellet gently resuspended in 50 mM Tris-HCl, pH 7.4 by mixing with an Ultra Turrax homogenizer. The suspension was centrifuged at 12,400 RPM (Sorvall F14S-6x250Y) for 10 minutes and the supernatant discarded. The pellet was homogenized in 5 mM Tris-HCl, pH 7.4 using an Ultra Turrax homogenizer and centrifuged again (13,000 RPM, 20 min, 4° C.). The final pellet was resuspended in 50 mM Tris-HCl, pH 7.4 and stored at −80° C. in appropriate aliquots before use. Protein concentration was determined by the Bradford method (Bio-Rad, USA) with bovine serum albumin as standard.
Measurement of mGluR2 negative allosteric modulatory activity of test compounds was performed as follows. Test compounds and glutamate were diluted in assay buffer containing 10 mM HEPES acid, 10 mM HEPES salt, pH 7.4, 100 mM NaCl, 3 mM MgCl2 and 10 μM GDP. Human mGlu2 receptor-containing membranes were thawed on ice and diluted in assay buffer supplemented with 18 μg/ml saponin. […] After addition of [^35S]GTPγS (f.c. 0.1 nM), assay mixtures were shaken briefly and further incubated to allow [^35S]GTPγS incorporation on activation (30 minutes, 30° C.). Final assay mixtures contained 7 μg of membrane protein in 10 mM HEPES acid, 10 mM HEPES salt, pH 7.4, 100 mM NaCl, 3 mM MgCl2, 10 μM GDP and 10 μg/ml saponin. Total reaction volume was 200 μl. Reactions were terminated by rapid filtration through Unifilter-96 GF/B plates (Perkin Elmer, Massachusetts, USA) using a 96-well filtermate universal harvester. Filters were washed 6 times with ice-cold 10 mM NaH2PO4/10 mM Na2HPO4, pH 7.4. Filters were then air-dried, and 30 μl of liquid scintillation cocktail (Microscint-O) was added to each well. Membrane-bound radioactivity was counted in a Topcount.
The concentration-response curves of representative compounds of the present invention were generated using the Lexis software interface (developed at J&J). Data were calculated as % of the control glutamate response, defined as the response that is generated upon addition of an EC80-equivalent concentration of glutamate.

T1 sequence (Q14416 19-872): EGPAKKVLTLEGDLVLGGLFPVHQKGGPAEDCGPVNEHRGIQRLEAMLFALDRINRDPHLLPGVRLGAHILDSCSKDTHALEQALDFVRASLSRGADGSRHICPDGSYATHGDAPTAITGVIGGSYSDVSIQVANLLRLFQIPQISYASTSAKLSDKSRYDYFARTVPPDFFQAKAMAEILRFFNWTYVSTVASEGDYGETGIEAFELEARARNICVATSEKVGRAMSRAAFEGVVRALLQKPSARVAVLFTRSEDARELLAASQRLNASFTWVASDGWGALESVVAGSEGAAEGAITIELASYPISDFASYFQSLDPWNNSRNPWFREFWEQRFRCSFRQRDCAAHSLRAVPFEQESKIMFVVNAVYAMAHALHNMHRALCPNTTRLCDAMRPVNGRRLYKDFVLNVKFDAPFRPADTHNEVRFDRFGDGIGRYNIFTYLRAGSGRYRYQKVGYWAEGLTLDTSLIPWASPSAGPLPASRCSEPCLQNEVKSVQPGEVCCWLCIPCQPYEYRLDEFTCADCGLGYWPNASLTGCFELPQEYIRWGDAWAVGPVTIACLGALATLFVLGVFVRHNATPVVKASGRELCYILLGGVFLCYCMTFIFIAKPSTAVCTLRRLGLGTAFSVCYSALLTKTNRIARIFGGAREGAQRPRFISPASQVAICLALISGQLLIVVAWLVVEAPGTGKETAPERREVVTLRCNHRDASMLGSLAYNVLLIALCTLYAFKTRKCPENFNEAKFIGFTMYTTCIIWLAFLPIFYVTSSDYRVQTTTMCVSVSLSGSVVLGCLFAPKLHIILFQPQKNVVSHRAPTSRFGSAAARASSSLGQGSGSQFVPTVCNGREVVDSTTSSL

| SMILES | IC50 [M] | Emax [%] | GTPγS - hmGluR2 anGT Emax [%] |
| --- | --- | --- | --- |
| COCC1CN(c2ccc(C(F)(F)F)cc2)C(=O)c2c(-c3ccnc(C)c3)cnn21 (single isomer, unassigned) [compound 121] | 1.62e-05 |  | 75 |
| CCCNc1cc(-c2cnn3c2C(=O)N(c2ccc(C(F)(F)F)c(Cl)c2)C[C@@H]3C)ccn1 [compound 264] | 2.69e-09 | 108 |  |
| CCN(C)c1cc(-c2cnn3c2C(=O)N(c2ccc(C(F)(F)F)cc2)C[C@@H]3C)ccn1 [compound 253] | 6.17e-09 | 111 |  |
| CNc1cc(-c2cnn3c2C(=O)N(c2ccc(Cl)c(Cl)c2)CC3CF)ccn1 (single isomer, unassigned) [compound 185] | 6.03e-09 |  | 104 |
| C[C@H]1CN(c2ccc(C(F)(F)F)c(CF)c2)C(=O)c2c(-c3ccnc(N(C)C)c3)cnn21 [compound 246] | 4.17e-09 | 116 |  |
| C[C@H]1CN(c2ccc(C(F)(F)F)cc2)C(=O)c2c(-c3ccnc(F)c3)cnn21 [compound 247] | 3.02e-08 | 109 |  |
| Cc1cc(-c2cnn3c2C(=O)N(c2ccc(C#N)c(F)c2)C[C@@H]3C)ccn1 [compound 75] | 2.75e-07 | 100 |  |
| Cc1cc(-c2cnn3c2C(=O)N(c2ccc(C(F)(F)F)cc2)CC3C(F)F)ccn1 (stereo not drawn) [compound 181, 7-(Difluoromethyl)-3-(2-methyl-4-pyridyl)-5-[4-(trifluoromethyl)phenyl]-6,7-dihydropyrazolo[1,5-a]pyrazin-4-one] | 4.17e-07 | 103 |  |
| CC(C)Oc1cc(-c2cnn3c2C(=O)N(c2ccc(C(F)(F)F)cc2)C[C@@H]3C)ccn1 [compound 138] | 6.76e-08 | 105 |  |
| C[C@H]1CN(c2ccc(C(F)(F)F)c(OCCF)c2)C(=O)c2c(-c3ccnc(N(C)C)c3)cnn21 [compound 249] | 8.32e-09 | 109 |  |
| C[C@H]1CN(c2ccc(C(F)(F)F)c(Cl)c2)C(=O)c2c(-c3ccnc(OCCF)c3)cnn21 [compound 177] | 9.33e-09 | 105 |  |
| CNc1cc(-c2cnn3c2C(=O)N(c2ccc(C(F)(F)F)c(C#N)c2)C[C@@H]3C)ccn1 [compound 179] | 3.63e-08 | 103 |  |
| CNc1cc(-c2cnn3c2C(=O)N(c2ccc(C(F)(F)F)cc2)C[C@@H]3C)cc(C)n1 [compound 241] | 1.82e-08 | 109 |  |
| COCC1CN(c2ccc(C(F)(F)F)cc2)C(=O)c2c(-c3ccnc(C)c3)cnn21 (single isomer, unassigned) [compound 120] | 6.46e-08 |  | 106 |
| C[C@H]1CN(c2ccc(C(F)(F)F)c(Cl)c2)C(=O)c2c(-c3ccnc(N4CC(F)C4)c3)cnn21 [compound 92] | 2.95e-09 | 107 |  |
| CCCNc1cc(-c2cnn3c2C(=O)N(c2ccc(C(F)(F)F)c(C)c2)C[C@@H]3C)ccn1 [compound 258] | 6.03e-09 | 108 |  |
| COc1nc(N2C[C@H](C)n3ncc(-c4ccnc(N5CCC5)c4)c3C2=O)ccc1C(F)(F)F [compound 209] | 6.46e-09 | 104 |  |
| CCN(C)c1cc(-c2cnn3c2C(=O)N(c2ccc(C(F)(F)F)c(Cl)c2)C[C@@H]3C)ccn1 [compound 254] | 1.7e-09 | 109 |  |
| C[C@H]1CN(c2ccc(C(F)(F)F)cc2)C(=O)c2c(-c3cccnc3)cnn21 [compound 32] | 5.62e-07 | 101 |  |
| C[C@H]1CN(c2ccc(C(F)(F)F)cc2)C(=O)c2c(-c3ccnc(N4CCCCC4)c3)cnn21 [compound 107] | 1.78e-08 | 114 |  |

The next lines start with the values.

| IC50 [M] | Emax [%] | GTPγS - hmGluR2 anGT Emax [%] | SMILES |
| --- | --- | --- | --- |
| 5.37e-08 | 103 |  | Cc1cc(-c2cnn3c2C(=O)N(c2cc(F)cc(OC(F)F)c2)C[C@@H]3C)ccn1 [compound 69] |
| 5.62e-07 |  | 105 | Cc1cc(-c2cnn3c2C(=O)N(c2ccc(Cl)c(Cl)c2)CC3CF)ccn1 (single isomer, unassigned) [compound 116] |
| 6.31e-08 | 104 |  | Cc1cc(-c2cnn3c2C(=O)N(c2ccc(F)c(C(F)(F)F)c2)C[C@@H]3C)ccn1 [compound 67, (7S)-5-[4-Fluoro-3-(trifluoromethyl)phenyl]-7-methyl-3-(2-methyl-4-pyridyl)-6,7-dihydropyrazolo[1,5-a]pyrazin-4-one] |
| 4.68e-09 | 109 |  | CCCNc1cc(-c2cnn3c2C(=O)N(c2ccc(Cl)c(Cl)c2)C[C@@H]3C)ccn1 [compound 263] |
| 1.02e-08 | 103 |  | Cc1cc(-c2cnn3c2C(=O)N(c2ccc(Cl)c(Cl)n2)C[C@@H]3C)ccn1 [compound 202] |
| 9.12e-08 | 103 |  | Cc1cc(-c2cnn3c2C(=O)N(c2ccc(C(C)C(F)(F)F)cc2)C[C@@H]3C)ccn1 (stereo partly drawn) [compound 113] |
| 1.55e-05 | 76 |  | COc1cc(Cl)ccc1N1C[C@H](C)n2ncc(-c3ccnc(C)c3)c2C1=O [compound 161] |
| 9.12e-08 | 104 |  | Cc1cc(-c2cnn3c2C(=O)N(c2cc(Cl)c(C)cn2)C[C@@H]3C)ccn1 [compound 198] |
| 4.79e-09 |  | 112 | Cc1cc(-c2cnn3c2C(=O)N(c2ccc(Cl)c(Cl)c2)C[C@@H]3C)ccn1 [6a] |
| 2.57e-05 | 67 |  | CCOc1ccc(C(F)(F)F)c(N2C[C@H](C)n3ncc(-c4ccnc(C)c4)c3C2=O)n1 [compound 199] |
| 6.17e-08 | 102 |  | Cc1cc(-c2cnn3c2C(=O)N(c2ccc(C(C)(C)C)cc2)C[C@@H]3C)ccn1 [compound 141] |
| 2.4e-08 | 107 |  | CNc1cc(-c2cnn3c2C(=O)N(c2ccc(Cl)cc2)C[C@@H]3C)ccn1 [compound 178] |
| 3.72e-09 | 108 |  | C[C@H]1CN(c2ccc(Cl)c(Cl)c2)C(=O)c2c(-c3ccnc(C4CC4)c3)cnn21 [compound 122] |
| 8.71e-08 | 104 |  | COc1ccc(N2C[C@H](C)n3ncc(-c4ccnc(C)c4)c3C2=O)cc1Cl [compound 20] |
| 4.47e-08 | 106 |  | Cc1cc(-c2cnn3c2C(=O)N(c2ccc(C(C)C)cc2)C[C@@H]3C)ccn1 [compound 65] |
| 1.66e-09 | 104 |  | C[C@H]1CN(c2ccc(Cl)c(Cl)c2)C(=O)c2c(-c3ccnc(N4CCC4)c3)cnn21 [compound 97] |
| 3.24e-07 | 108 |  | Cc1cc(-c2cnn3c2C(=O)N(c2ccc(Cl)cn2)C[C@@H]3C)ccn1 [compound 187] |
| 7.59e-09 | 109 |  | C[C@H]1CN(c2ccc(Cl)c(Cl)c2)C(=O)c2c(-c3ccnc(CF)c3)cnn21 [compound 117] |
| 5.01e-08 | 107 |  | Cc1cc(-c2cnn3c2C(=O)N(c2ccc(Cl)c(C)n2)C[C@@H]3C)ccn1 [compound 196] |
| 4.07e-06 | 92 |  | CCOc1ccc(Cl)c(N2C[C@H](C)n3ncc(-c4ccnc(C)c4)c3C2=O)n1 [compound 195] |
| 1e-06 | 102 |  | Cc1cc(-c2cnn3c2C(=O)N(c2ccccc2)C[C@@H]3C)ccn1 [compound 86] |
| 1.1e-08 | 107 |  | CC(C)Nc1cc(-c2cnn3c2C(=O)N(c2ccc(Cl)c(Cl)c2)C[C@@H]3C)ccn1 [compound 261] |
| 7.08e-09 | 108 |  | Cc1cc(-c2cnn3c2C(=O)N(c2ccc(Cl)c(Cl)c2)CC3CF)ccn1 (single isomer, unassigned) [compound 115] |
| 1.1e-08 | 103 |  | Cc1cc(-c2cnn3c2C(=O)N(c2ccc(Cl)c(OC(F)F)c2)C[C@@H]3C)ccn1 [compound 163] |
| 3.09e-06 | 102 |  | Cc1cc(-c2cnn3c2C(=O)N(c2ccc4c(c2)OCCO4)C[C@@H]3C)ccn1 [compound 42] |
